According to patent US20250305981A1, “SWITCHING PEPTIDE AND IMMUNOASSAY USING SAME” (OPTOLANE TECHNOLOGIES INC., priority 2021, published 2025):

Tests used:
[1] = system: Fab region of rabbit anti-HRP antibodies; assay: Papain treatment of immobilized antibody bound to fluorescently labeled switching peptide (FIG. 6B); format: binding; conditions: after vs before papain
From the text: In the case of this experiment, after immobilization of the antibodies (rabbit anti-HRP antibodies) on the microplate, binding between the antibody and the switching peptide was induced by treatment with a fluorescently labeled switching peptide, the unbound switching peptide was removed, and then the Fab region was hydrolyzed from the immobilized antibodies by adding papain, which is a protease. Referring to FIG. 6A, the fluorescence at the bottom (B) of the microplate is expected to decrease after the papain reaction because the fluorescently labeled switching peptides are bound to the Fab region of antibodies, and the fluorescence in the solution is expected to increase because the Fab region to which the switching peptide is bound is hydrolyzed and dissolved into the solution. This prediction is proven to be true from the graphs of FIG. 6B.

Anti-HBsAg antibody(g) = assay: Fluorescence before/after antigen binding, peptide bound to immobilized antibody (Table 2); parameters: species or system goat; conditions: for fluorescence intensity at the bottom of the plate decreased by: after treatment with antigen HBsAg; for Bottom (B) of microplate After antigen binding, fluorescence intensity / Bottom (B) of microplate Before antigen binding, fluorescence intensity / Bottom (B) of microplate Change (%) / In solution (S) After antigen binding, fluorescence intensity / In solution (S) Before antigen binding, fluorescence intensity: antigen HBsAg, fluorescently labeled peptide
Anti-CRP antibody(r) = assay: as above; parameters: species or system rabbit; conditions: fluorescently labeled peptide
[2] = target: anti-HRP antibody from a rabbit; assay: One-step immunoassay with fluorescently labeled peptides, varying HRP antigen concentration (FIG. 7); format: binding; conditions: estimated; HRP antigen 0.3 to 100 μM, fluorescence in solution; read-out: Equilibrium dissociation constant
From the text: FIG. 7A is a schematic diagram for explaining an immunoassay method using fluorescently labeled peptide compounds of Example 1, and FIGS. 7B and 7C are graphs illustrating the fluorescence intensities in a solution and at a bottom of the microplate depending on a concentration of the antigen measured by the immunoassay method illustrated in FIG. 7A. In this experiment, an anti-HRP antibody from a rabbit immobilized on a microplate was used as the binding antibody and HRP was used as the antigen.
Referring to FIGS. 7A to 7C, as a result of performing immunoassay while varying the concentration of antigen HRP from 0.3 to 100 μM, for the four types of switching peptides (H1, H2, L1, L2), an increase in the fluorescence intensity in the solution was observed depending on the concentration of the antigen (HRP).
Equilibrium dissociation constants of the H1, H2, L1, and L2 peptides were estimated to be 1.65, 3.11, 3.29, and 1.48 μM, and the difference in the dissociation constant for each switching peptide means that each switching peptide has a different detection area for each antigen.

L2 peptide = assay: FRET test of specific interaction between H1 and L2 peptides on microplate; format: binding; conditions: TAMRA-H1 and FAM-L2, concentration of H1 peptide varied
From the text: (§1) Here, at the ends of the L1 and L2 peptides, a first fluorescent label, FAM (λex=488 nm, λem=532 nm) was modified, and at the ends of the H1 and H2 peptides, a second fluorescent label, TAMRA (λex=532 nm, λem=570 nm) was modified.

Anti-hCG antibody(m) = assay: Fluorescence before/after antigen binding, peptide bound to immobilized antibody (Table 2); parameters: species or system mouse; conditions: fluorescently labeled peptide
Anti-HRP antibody(r) = assay: as above; parameters: species or system rabbit; conditions: fluorescently labeled peptide
[3] = Dynamic laser scattering (DLS) of binding antibody bound to ferrocene-labeled switching peptide (FIG. 8A); format: physicochemical; conditions: compared with antibody bound to L2 or H1 peptide
Method: FIG. 8A is a result obtained by performing dynamic laser scattering (DLS) to compare the hydrodynamic radius of the switching peptides of the present disclosure. Referring to FIG. 8A, it can be confirmed that DLS was performed using intensity measurement of scattered light under monochromatic laser light, and a hydrodynamic radius of the binding antibody bound to the L1 or H2 peptide was smaller than that of the bound antibody bound to the L2 or H1 peptide.

H2 peptide = assay: FRET test of specific interaction between L1 and H2 peptides on microplate; format: binding; conditions: FAM-L1 and TAMRA-H2, concentration of L1 peptide varied
H2 peptide, sequence (as listed by the source): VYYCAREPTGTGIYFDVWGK
From the text: as §1
Referring to FIG. 4A, the interaction between the L1 and H2 peptides was observed by changing the concentration of the L1 peptide, and the FRET intensity increased with increasing the concentration of the L1 peptide.

[4] = Diffusion coefficient (Dox) of ferrocene-labeled switching peptides in CV analysis (FIG. 8C); format: physicochemical; conditions: compared with H1 and L2 peptides
From the text: FIG. 8C is a graph obtained by measuring a diffusion coefficient (Dox) of the switching peptides of the present disclosure in CV analysis. […] Therefore, L1 and H2 peptides labeled with ferrocene may be optimal probes for electrochemical immunoassay.

Row | Substance | decrease of fluorescence intensity at the bottom of the microplate after papain treatment [1] | increase of fluorescence intensity in the solution after papain treatment [1] | fluorescence intensity at the bottom of the plate decreased by (Anti-HBsAg antibody(g)) | Bottom (B) of microplate After antigen binding, fluorescence intensity (Anti-HBsAg antibody(g)) | Bottom (B) of microplate Before antigen binding, fluorescence intensity (Anti-HBsAg antibody(g)) | Bottom (B) of microplate Change (%) (Anti-HBsAg antibody(g)) | In solution (S) After antigen binding, fluorescence intensity (Anti-HBsAg antibody(g)) | In solution (S) Before antigen binding, fluorescence intensity (Anti-HBsAg antibody(g)) | Bottom (B) of microplate After antigen binding, fluorescence intensity (Anti-CRP antibody(r)) | Bottom (B) of microplate Before antigen binding, fluorescence intensity (Anti-CRP antibody(r)) | Bottom (B) of microplate Change (%) (Anti-CRP antibody(r)) | In solution (S) After antigen binding, fluorescence intensity (Anti-CRP antibody(r)) | In solution (S) Before antigen binding, fluorescence intensity (Anti-CRP antibody(r)) | In solution (S) Change (%) (Anti-CRP antibody(r)) | Kd [2] | Bottom (B) of microplate After antigen binding, fluorescence intensity (Anti-hCG antibody(m)) | Bottom (B) of microplate Before antigen binding, fluorescence intensity (Anti-hCG antibody(m)) | Bottom (B) of microplate Change (%) (Anti-hCG antibody(m)) | In solution (S) After antigen binding, fluorescence intensity (Anti-hCG antibody(m)) | In solution (S) Before antigen binding, fluorescence intensity (Anti-hCG antibody(m)) | also measured
1 | SYWIH WVKQR PGQGL EWIGE [H1, homology to FR2 region of the heavy chain] | 84.3% | 2,184% | 41.1% | 4618 | 11225 | −58.9% | 11453 | 2242 | 3595 | 4912 | −26.8% | 5659 | 2242 | +152% | 1650 nM | 1940 | 5646 | −65.6% | 3921 | 1281 | specific interaction (FRET intensity) (L2 peptide): specific interaction; In solution (S) Change (%) (Anti-hCG antibody(m)): +206%; Bottom (B) of microplate After antigen binding, fluorescence intensity (Anti-HRP antibody(r)): 1451; Bottom (B) of microplate Before antigen binding, fluorescence intensity (Anti-HRP antibody(r)): 11840; Bottom (B) of microplate Change (%) (Anti-HRP antibody(r)): −87.7%; In solution (S) After antigen binding, fluorescence intensity (Anti-HRP antibody(r)): 21965; In solution (S) Before antigen binding, fluorescence intensity (Anti-HRP antibody(r)): 2596
2 | TYLEW YPQKP GQSPK LLIYK [L1, homology to FR2 region of the light chain] | 84.8% | 1,032% | 48.7% | 5388 | 11062 | −51.3% | 20501 | 2779 | 3456 | 6719 | −48.6% | 6505 | 741 | +778% | 3290 nM | 1777 | 4630 | −61.6% | 3580 | 1248 | hydrodynamic radius of the binding antibody bound to the peptide [3]: smaller; specific interaction (FRET intensity) (H2 peptide): specific interaction; diffusion coefficient (Dox) [4]: relatively higher; In solution (S) Change (%) (Anti-hCG antibody(m)): +187%; Bottom (B) of microplate After antigen binding, fluorescence intensity (Anti-HRP antibody(r)): 1990; Bottom (B) of microplate Before antigen binding, fluorescence intensity (Anti-HRP antibody(r)): 15608; Bottom (B) of microplate Change (%) (Anti-HRP antibody(r)): −87.3%; In solution (S) After antigen binding, fluorescence intensity (Anti-HRP antibody(r)): 12280; In solution (S) Before antigen binding, fluorescence intensity (Anti-HRP antibody(r)): 2687
3 | VYYCA REPTG TGIYF DVWGK [H2, homology to FR3 or FR4 region of the heavy chain] | 58.7% | 2,356% | 63.9% | 18773 | 29367 | −36.1% | 9136 | 1784 | 22205 | 22205 | −39.5% | 16311 | 2099 | +677% | 3110 nM | 23320 | 23320 | −88.5% | 8545 | 1654 | hydrodynamic radius of the binding antibody bound to the peptide [3]: smaller; diffusion coefficient (Dox) [4]: relatively higher; In solution (S) Change (%) (Anti-hCG antibody(m)): +416%; Bottom (B) of microplate After antigen binding, fluorescence intensity (Anti-HRP antibody(r)): 1806; Bottom (B) of microplate Before antigen binding, fluorescence intensity (Anti-HRP antibody(r)): 122230; Bottom (B) of microplate Change (%) (Anti-HRP antibody(r)): −85.2%; In solution (S) After antigen binding, fluorescence intensity (Anti-HRP antibody(r)): 18128; In solution (S) Before antigen binding, fluorescence intensity (Anti-HRP antibody(r)): 2272
4 | VYYCF QGSHV PFTK [L2, homology to FR3 or FR4 region of the light chain] | 72.5% | 2,452% | 35.2% | 9856 | 28002 | −64.8% | 15359 | 2279 | 11236 | 20394 | −44.9% | 32187 | 3274 | +883% | 1480 nM | 3072 | 33156 | −90.7% | 9402 | 1692 | In solution (S) Change (%) (Anti-hCG antibody(m)): +456%; Bottom (B) of microplate After antigen binding, fluorescence intensity (Anti-HRP antibody(r)): 3208; Bottom (B) of microplate Before antigen binding, fluorescence intensity (Anti-HRP antibody(r)): 12584; Bottom (B) of microplate Change (%) (Anti-HRP antibody(r)): −74.5%; In solution (S) After antigen binding, fluorescence intensity (Anti-HRP antibody(r)): 16135; In solution (S) Before antigen binding, fluorescence intensity (Anti-HRP antibody(r)): 2315
